The values that follow come from the CombiSolv-Exp solvation set (Vermeire and Green 2021).

This data set is described as follows: solvent given as SMILES.
Setting [1] is: in CCCCCCCCC=CCCCCCCCC(=O)OCC(COC(=O)CCCCCCCC=CCCCCCCCC)OC(=O)CCCCCCCC=CCCCCCCCC

`CCc1ccccc1`: the “solvation free energy, 298 K” value reads like this: (in C1CCOC1) -6.03 kcal/mol; (in C1COCCO1) -5.7 kcal/mol; (in C=CCCCCCCCCCCCCCC) -5.07 kcal/mol; (in CC#N) -5.19 kcal/mol; (in CC(=O)N(C)C) -5.46 kcal/mol; (in CC(C)(C)O) -4.99 kcal/mol. The “solvation free energy, 298 K” value (in CC(C)CC(C)(C)C) was -5.3 kcal/mol; the “solvation free energy, 298 K” value (in CC(C)CO) is -4.95 kcal/mol; the “solvation free energy, 298 K” value (in CC(C)O) is -4.88 kcal/mol; the “solvation free energy, 298 K” value (in CC(O)CO) is -4.1 kcal/mol; the “solvation free energy, 298 K” value (in CCC#N) is -5.78 kcal/mol; the “solvation free energy, 298 K” value (in CCC(C)=O) was -5.62 kcal/mol. Further, the “solvation free energy, 298 K” value was -5.6 kcal/mol (in CCCC#N); -5.37 kcal/mol (in CCCCC(CC)COC(=O)CCCCC(=O)OCC(CC)CCCC); -5.35 kcal/mol (in CCCCCC); -5.36 kcal/mol (in CCCCCCC); -5.23 kcal/mol (in CCCCCCCCCC); -5.16 kcal/mol (in CCCCCCCCCCCCCCCC). In addition, the “solvation free energy, 298 K” value is -5.05 kcal/mol (in CCCCCCCCO); -5.44 kcal/mol (in CCCCN(C=O)CCCC); -5.38 kcal/mol (in CCCCOC(=O)c1ccccc1C(=O)OCCCC); -4.93 kcal/mol (in CCCO); -4.83 kcal/mol (in CCO); -5.23 kcal/mol (in CCOC(=O)c1ccccc1C(=O)OCC). The “solvation free energy, 298 K” value (in CN(C)C=O) is -5.41 kcal/mol; the “solvation free energy, 298 K” value (in CNC(C)=O) was -5.05 kcal/mol; the “solvation free energy, 298 K” value (in CNC=O) is -4.82 kcal/mol; the “solvation free energy, 298 K” value (in CO) is -4.86 kcal/mol; the “solvation free energy, 298 K” value (in COCCO) was -5.05 kcal/mol; the “solvation free energy, 298 K” value (in Clc1ccccc1) is -5.84 kcal/mol. Further, the “solvation free energy, 298 K” value by setting is: (in NC=O) -3.26 kcal/mol; (in O) -0.72 kcal/mol; (in O=CN1CCOCC1) -5.01 kcal/mol; (in O=Cc1ccco1) -5.04 kcal/mol; (in OCCCCCO) -4.4 kcal/mol; (in OCCCCO) -4.2 kcal/mol. Besides, the “solvation free energy, 298 K” value by setting is: (in OCCCO) -3.91 kcal/mol; (in OCCO) -3.36 kcal/mol; (in OCCOCCO) -4.15 kcal/mol; (in OCCOCCOCCO) -4.31 kcal/mol; (in OCCOCCOCCOCCO) -4.38 kcal/mol.

Consider `c1ccc(P(c2ccccc2)c2ccccc2)cc1`, for which the “solvation free energy, 298 K” value by setting is: (in CC(C)O) -15.4 kcal/mol; (in CCO) -15.7 kcal/mol; (in CO) -15.4 kcal/mol.

Turning to `CC(=O)CC(C)=O`, the “solvation free energy, 298 K” value is -4.89 kcal/mol (in C1CCCCC1); -5.03 kcal/mol (in CC(C)O); -5.05 kcal/mol (in CCC(C)O); -5.03 kcal/mol (in CCCO); -5.43 kcal/mol (in CCO); -4.84 kcal/mol (in O).

Consider `CN1CCCC1=O`, for which the “solvation free energy, 298 K” value (in C1CCCCC1) is -5.73 kcal/mol; the “solvation free energy, 298 K” value (in CC(C)CC(C)(C)C) was -5.93 kcal/mol; the “solvation free energy, 298 K” value (in O) is -7.83 kcal/mol; the “solvation free energy, 298 K” value (in c1ccccc1) is -6.83 kcal/mol.

Regarding `C=C(C)C`, the “solvation free energy, 298 K” value is -2.03 kcal/mol (in CC(C)(C)O); -2.37 kcal/mol (in CC(C)=O); -1.99 kcal/mol (in CC(C)CCO); -1.98 kcal/mol (in CC(C)CO); -1.98 kcal/mol (in CC(C)O); -2.09 kcal/mol (in CCC(C)(C)O). Moreover, the “solvation free energy, 298 K” value was -1.98 kcal/mol (in CCC(C)CO); -1.99 kcal/mol (in CCC(C)O); -2.01 kcal/mol (in CCC(O)CC); -2.01 kcal/mol (in CCCC(C)O); -2.49 kcal/mol (in CCCCC); -2.43 kcal/mol (in CCCCCC). Besides, the “solvation free energy, 298 K” value was -2.44 kcal/mol (in CCCCCCC); -2.41 kcal/mol (in CCCCCCCC); -2.39 kcal/mol (in CCCCCCCCC); -2.36 kcal/mol (in CCCCCCCCCC); -2.01 kcal/mol (in CCCCCO); -2.17 kcal/mol (in CCCCO). Besides, the “solvation free energy, 298 K” value is, setting by setting: (in CCCO) -2.01 kcal/mol; (in CCOC(C)=O) -2.55 kcal/mol; (in CN1CCCC1=O) -1.8 kcal/mol; (in CN(C)C=O) -1.98 kcal/mol; (in Cc1ccc(C)cc1) -2.32 kcal/mol; (in Cc1cccc(C)c1) -2.33 kcal/mol. Moreover, the “solvation free energy, 298 K” value was -2.31 kcal/mol (in Cc1ccccc1C); -2.44 kcal/mol (in ClC(Cl)(Cl)Cl); -1.91 kcal/mol (in Ic1ccccc1); -1.97 kcal/mol (in N#Cc1ccccc1); 1.17 kcal/mol (in O); -1.36 kcal/mol (in O=CN1CCOCC1). Moreover, the “solvation free energy, 298 K” value (in c1ccccc1) was -2.32 kcal/mol.

Turning to `C=CC(C)CCCC(C)CCCC(C)CCCC(C)C` (stereo unspecified), for the setting “in O”, the “solvation free energy, 298 K” value turned out to be 3.75 kcal/mol.

For `O=[N+]([O-])c1c(Cl)c(Cl)cc(Cl)c1Cl`, the “solvation free energy, 298 K” value reads like this: under setting [1], -10.8 kcal/mol; (in O) -3.77 kcal/mol.

With `c1c[nH]cn1`, the “solvation free energy, 298 K” value (in O) is -9.63 kcal/mol.

Regarding `COc1cc(C)ccc1O`, the “solvation free energy, 298 K” value (in O) was -5.8 kcal/mol.

Take `C#CCC`: the “solvation free energy, 298 K” value by setting is: (in C1COCCO1) -3 kcal/mol; (in CC(C)=O) -2.99 kcal/mol; (in CC(C)CC(C)(C)C) -2.36 kcal/mol; (in CN(C)C=O) -2.92 kcal/mol; (in COC(C)=O) -3.03 kcal/mol; (in O) -0.16 kcal/mol.

Regarding `CC(C)Br`, the “solvation free energy, 298 K” value is -3.29 kcal/mol (in C=CCCCCCCCCCCCCCC) and -0.48 kcal/mol (in O).

For the compound `Clc1cccc2c1Oc1ccccc1O2`, the “solvation free energy, 298 K” value (in O) was -3.52 kcal/mol.

In the case of `Nc1ccc(S(=O)(=O)Nc2nccs2)cc1`, the “solvation free energy, 298 K” value (in O) is -18.2 kcal/mol.

On to `Cc1ccc(CN)cc1`, for which the “solvation free energy, 298 K” value (in O) is -6.07 kcal/mol.

In the case of `[N]=O`, the “solvation free energy, 298 K” value is, setting by setting: (in CC#N) 0.63 kcal/mol; (in CCCCCC) 0.47 kcal/mol; (in CCO) 0.81 kcal/mol; (in CCOC(C)=O) 0.55 kcal/mol; (in CCOCC) 0.34 kcal/mol; (in CO) 0.62 kcal/mol. Moreover, the “solvation free energy, 298 K” value reads like this: (in Cc1cccc(C)c1) 0.79 kcal/mol; (in Cc1ccccc1) 0.76 kcal/mol; (in ClC(Cl)(Cl)Cl) 0.62 kcal/mol.

Regarding `O=C(O)Cc1ccccc1`, the “solvation free energy, 298 K” value by setting is: (in C=CCCCCCCC=C) -7.39 kcal/mol; (in CCOC(C)=O) -11.1 kcal/mol; (in O) -8.74 kcal/mol.

For `Clc1ccc(C(c2ccc(Cl)cc2)C(Cl)(Cl)Cl)cc1`, the “solvation free energy, 298 K” value reads like this: under setting [1], -14.9 kcal/mol; (in CCCCCCCCO) -13.8 kcal/mol; (in O) -4.61 kcal/mol.

As for `CBr`, the “solvation free energy, 298 K” value (in O) is -0.82 kcal/mol.

On to `CCCCCCCBr`, for which the “solvation free energy, 298 K” value (in O) came out at 0.34 kcal/mol.

Regarding `Br`, the “solvation free energy, 298 K” value was -1.23 kcal/mol (in CCCC), -1.19 kcal/mol (in CCCCCC), -1.11 kcal/mol (in CCCCCCCC) and -1.09 kcal/mol (in CCCCCCCCCC).

In the case of `CC(C)Cc1ccccc1`, the “solvation free energy, 298 K” value (in O) came to 0.19 kcal/mol.

Regarding `Cc1cc(NS(=O)(=O)c2ccc(N)cc2)nc(C)n1`, the “solvation free energy, 298 K” value (in O) is -21.9 kcal/mol.

Regarding `Cc1cccc(N)c1`, where the note is “in O”, the “solvation free energy, 298 K” value is -5.69 kcal/mol.

With `O=c1[nH]cc(F)c(=O)[nH]1`, where the note is “in O”, the “solvation free energy, 298 K” value is -16.9 kcal/mol.

For the compound `CCCCC(=O)CC(=O)CCCC`, the “solvation free energy, 298 K” value (in O) is -4.13 kcal/mol.

Take `CC(C)CBr`: the “solvation free energy, 298 K” value (in C=CCCCCCCCCCCCCCC) is -3.98 kcal/mol and the “solvation free energy, 298 K” value (in O) was -0.03 kcal/mol.

`CCCSC(=O)N(CCC)CCC`: the “solvation free energy, 298 K” value (in O) is -4.13 kcal/mol.

Take `CCCCCCCCC=CCCCCCCCC(=O)OCC`: under “in O”, the “solvation free energy, 298 K” value is -8.25 kcal/mol.

On to `COS(=O)(=O)OC`, for which, for the setting “in O”, the “solvation free energy, 298 K” value is -5.1 kcal/mol.

Regarding `CC=C(C)C`, the “solvation free energy, 298 K” value reads like this: (in BrC(Br)C(Br)Br) -2.68 kcal/mol; (in C1=Cc2ccccc2C1) -3.05 kcal/mol; (in C=CCCCCCCCCCCCCCC) -2.97 kcal/mol; (in CC1COC(=O)O1) -2.09 kcal/mol; (in CC(=O)N(C)C) -2.58 kcal/mol; (in CC(=O)c1ccccc1) -2.79 kcal/mol. Besides, the “solvation free energy, 298 K” value reads like this: (in CC(C)(C)O) -3.22 kcal/mol; (in CCCCC#N) -2.9 kcal/mol; (in CCCCCC#N) -2.96 kcal/mol; (in CCNC(C)=O) -2.69 kcal/mol; (in CN1CCCC1=O) -2.51 kcal/mol; (in CN(C)C=O) -2.56 kcal/mol. The “solvation free energy, 298 K” value (in CN(C)P(=O)(N(C)C)N(C)C) was -2.61 kcal/mol; the “solvation free energy, 298 K” value (in CNC(C)=O) is -2.54 kcal/mol; the “solvation free energy, 298 K” value (in CNC=O) was -2.17 kcal/mol; the “solvation free energy, 298 K” value (in CS(C)=O) is -1.97 kcal/mol; the “solvation free energy, 298 K” value (in Cc1cccc2ccccc12) was -2.88 kcal/mol; the “solvation free energy, 298 K” value (in Cc1cccc(O)c1) was -2.63 kcal/mol. For the same compound, the “solvation free energy, 298 K” value (in ClC(Cl)C(Cl)Cl) is -3.16 kcal/mol; the “solvation free energy, 298 K” value (in Clc1cccc2ccccc12) is -2.8 kcal/mol; the “solvation free energy, 298 K” value (in N#CCCCC#N) was -1.67 kcal/mol; the “solvation free energy, 298 K” value (in N#CCCCCC#N) was -1.98 kcal/mol; the “solvation free energy, 298 K” value (in N#CCc1ccccc1) was -2.48 kcal/mol; the “solvation free energy, 298 K” value (in N#Cc1ccccc1) was -2.89 kcal/mol. The “solvation free energy, 298 K” value is, setting by setting: (in NCc1ccccc1) -2.67 kcal/mol; (in Nc1ccccc1) -2.3 kcal/mol; (in O) 1.37 kcal/mol; (in O=C1CCCCC1) -3.09 kcal/mol; (in O=C(O)C(Cl)Cl) -2.63 kcal/mol; (in OCCO) -0.76 kcal/mol. In addition, the “solvation free energy, 298 K” value (in OCc1ccccc1) was -2.44 kcal/mol.

For `N#Cc1cccnc1`, the “solvation free energy, 298 K” value (in O) was -6.75 kcal/mol.

Take `c1ccc2c(c1)OCCOCCOCCOCCO2`: the “solvation free energy, 298 K” value was -14.8 kcal/mol (in Cc1cccc(C)c1) and -14.4 kcal/mol (in O).

Consider `Cc1c(C)c(C)c(C)c(C)c1C`, for which the “solvation free energy, 298 K” value was -8.61 kcal/mol (in CCCCCCCCO) and -1.95 kcal/mol (in O).

With `CCCNCc1ccc(C)cc1`, the “solvation free energy, 298 K” value (in O) is -5.73 kcal/mol.

Turning to `C=C1CCC23CC1C(C)(C)C2CCC3C` (stereo unspecified), the “solvation free energy, 298 K” value (in O) was 0.8 kcal/mol.

In the case of `CCCCC(=O)CC`, the “solvation free energy, 298 K” value runs as follows: (in CCCCCCC) -5.42 kcal/mol; (in CCCCO) -5.8 kcal/mol; (in CO) -5.85 kcal/mol; (in O) -3.04 kcal/mol.

For `COC(OC)(OC)c1ccccc1`, the “solvation free energy, 298 K” value (in O) is -4.04 kcal/mol.

As for `Clc1cc2c(cc1Cl)Oc1ccccc1O2`, the “solvation free energy, 298 K” value (in O) is -3.56 kcal/mol.
